Assay results: the supplement of paper PMC10011410
± gives the standard deviation of the averaged measurements.

Legend:
[1] = test system: U-2 OS; assay: AUC of culture confluence over time (live-cell imaging) (AUC (confluence % x time)); higher = more confluent culture (less growth inhibition)
How it was run: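 Live-cell imaging tracked confluence of U-2 OS cells grown in F-12K medium plus 10% FBS. After seeding at 750 cells per well in 384-well plates, cells received compounds by pin tool 24 h later, mostly at 20, 10 and 5 μM, with 0.2% DMSO. Plates stayed at 37 °C and were imaged every 4 h for up to 60 h. Each value is the area under the confluence-versus-time curve.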

[2] = test system: U-2 OS; assay: cell painting activity score (Mahalanobis distance from DMSO wells); higher = stronger morphological phenotype; details: 24 h
How it was run: (§1)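 In this cell painting assay, roughly 1,500 U-2 OS cells per well in 384-well plates were pin-tool treated at 37 °C for 24 h, typically at six 2-fold steps from 20 μM down to 625 nM. Cells were stained with MitoTracker, concanavalin A, phalloidin, wheat germ agglutinin, Hoechst and SYTO 14, imaged on an Opera Phenix, and analysed in CellProfiler with normalization to same-plate DMSO cells. Reported values are means of four replicate plates, with the activity score defined as the Mahalanobis distance from DMSO wells and cell count defined relative to DMSO wells.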

[3] = test system: U-2 OS; assay: intracellular GSH:GSSG ratio (calculated); higher = more reduced glutathione pool; details: 24 h
How it was run: (§2)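 Pin-tool treatment of U-2 OS cells began 24 h after seeding at 750 per well in white low-volume 384-well plates, using 20, 10 and 5 μM for most compounds and 0.4% DMSO, for 24 h at 37 °C. For the glutathione plates, GSH/GSSG-Glo reagents were diluted three-fold in PBS, and each plate held GSH standards. Total glutathione, GSSG and viability (CellTiter-Glo) were taken as luminescence on separate plates and are reported relative to vehicle or as a GSH:GSSG ratio after background and row/column correction.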

[4] = test system: U-2 OS; assay: total intracellular glutathione (GSH + GSSG) relative to DMSO (% of control); higher = more glutathione; details: 24 h
How it was run: as §2

[5] = test system: U-2 OS; assay: relative cell count vs DMSO (cell painting) (fraction of DMSO control); higher = more cells remaining (less cytotoxic); details: 24 h
How it was run: as §1

[6] = test system: U-2 OS; assay: cell viability (CellTiter-Glo) relative to DMSO (% of control); higher = more viable; details: 24 h
How it was run: as §2

SMILES	AUC of culture confluence over time ([1]; 5 µM)	AUC of culture confluence over time ([1]; 10 µM)	AUC of culture confluence over time ([1]; 20 µM)	cell painting activity score ([2]; 0.625 µM)	cell painting activity score ([2]; 1.25 µM)	cell painting activity score ([2]; 2.5 µM)	cell painting activity score ([2]; 5 µM)	cell painting activity score ([2]; 10 µM)	cell painting activity score ([2]; 20 µM)	intracellular GSH:GSSG ratio ([3]; 5 µM)	intracellular GSH:GSSG ratio ([3]; 10 µM)	intracellular GSH:GSSG ratio ([3]; 20 µM)	total intracellular glutathione ([4]; 5 µM)	total intracellular glutathione ([4]; 10 µM)	total intracellular glutathione ([4]; 20 µM)	relative cell count ([5]; 0.625 µM)	relative cell count ([5]; 1.25 µM)	relative cell count ([5]; 2.5 µM)	relative cell count ([5]; 5 µM)	relative cell count ([5]; 10 µM)	relative cell count ([5]; 20 µM)	cell viability ([6]; 5 µM)	cell viability ([6]; 10 µM)	cell viability ([6]; 20 µM)	AUC of culture confluence over time ([1]; 40 µM)	AUC of culture confluence over time ([1]; 80 µM)	cell painting activity score ([2]; 40 µM)	cell painting activity score ([2]; 80 µM)	intracellular GSH:GSSG ratio ([3]; 40 µM)	intracellular GSH:GSSG ratio ([3]; 80 µM)	total intracellular glutathione ([4]; 40 µM)	total intracellular glutathione ([4]; 80 µM)	relative cell count ([5]; 40 µM)	relative cell count ([5]; 80 µM)	cell viability ([6]; 40 µM)	cell viability ([6]; 80 µM)
CNC(=O)Nc1ccc2c(c1)CC[C@@]21OC(=O)N(CC(=O)N(Cc2ccc(F)cc2)[C@@H](C)C(F)(F)F)C1=O	44.7	44	42.6	8.32	8.2	8.22	8.54	9.44	10.2	27.9	31.4	30.9	81.7 ± 3.5	74.9 ± 6.2	79 ± 7.5	1.04	0.976	1.04	1.02	1.05	1	93.1 ± 1.9	83.6 ± 4.3	85.3 ± 5												
O=S1(=O)C=Cc2ccccc21	53.2	50.3	36.8	7.06	8.41	10.4	10.2	13.2	13.2	19.9	14.6	13.5	138 ± 4	132 ± 8.3	141 ± 7.7	1.04	0.994	0.991	1.05	0.975	0.957	102 ± 5	97.3 ± 2.8	103 ± 5.8												
Cc1cc(-c2ccccc2)cc(C(=O)NNS(=O)(=O)c2ccccc2)c1F	52.8	51.6	46.7	6.33	7.18	6.97	6.92	8.27	8.87	37	26	29	124 ± 13	109 ± 5.4	110 ± 4.2	0.914	0.965	0.931	0.965	0.952	0.966	109 ± 6	101 ± 7.7	98.9 ± 2.5												
CNC(=O)Nc1ccc2c(c1)[C@@]1(CC2)OC(=O)N(CC(=O)N(Cc2ccc(F)cc2)[C@@H](C)C(F)(F)F)C1=O	45.6	49.6	44.7	4.88	6.13	4.26	5.02	5.83	4.92	20.4	29.9	16.2	100 ± 8.6	122 ± 7.3	90.4 ± 4	0.989	1.01	0.976	1.01	0.982	0.969	105 ± 7.5	98.6 ± 12	103 ± 9.4												
O=C(OCC)/C(C(OCC)=O)=C\CCCCCCCCCCCCCC	53.1	50.2	48.9	5.04	5.19	5.29	5.06	5.95	10.9	18.9	17.6	21.8	100 ± 4.9	95.7 ± 3.5	93.1 ± 2	0.991	0.978	0.959	1.02	0.99	0.967	94.3 ± 6.5	96.7 ± 6.4	100 ± 8	50.4	50.3	7.78	10.2	22	20.9	105 ± 4.8	98.9 ± 3	0.841	0.829	98 ± 6.9	99.2 ± 6.2
O=C1/C(=C/c2ccc(O)c(Br)c2)CCC/C1=C\c1ccc(O)c(Br)c1	49.5			4.8	5.76	5.97	8.32	9.31	12.2	15.5	14	11.9	113 ± 2.6	126 ± 4.8	120 ± 2.2	1.01	1.02	0.982	0.904	0.96	0.55	100 ± 4.4	95.1 ± 4.6	94.1 ± 5.6					9.48	3.73	119 ± 3.6	13.4 ± 2.5			88.5 ± 5.9	11.9 ± 2.3
